In patent publication US8415501B2, “Methods and compositions for making and using polymorphs of cinacalcet” (Amgen, Inc., priority 2006, dated 2013):

Columns and labels:
[1] = test system: patients with parathyroid carcinoma; settings: cited from earlier work
cytochrome P450 2D6 = cytochrome P450 2D6 (Homo sapiens, UniProt P10635); settings: cited from earlier work
[2] = solid-form stability of cinacalcet HCl polymorphs
Text: The present invention describes an additional third form of the compound. […] The present invention is directed to a novel polymorph Form III.

Chain of cytochrome P450 2D6 (P10635 whole entry): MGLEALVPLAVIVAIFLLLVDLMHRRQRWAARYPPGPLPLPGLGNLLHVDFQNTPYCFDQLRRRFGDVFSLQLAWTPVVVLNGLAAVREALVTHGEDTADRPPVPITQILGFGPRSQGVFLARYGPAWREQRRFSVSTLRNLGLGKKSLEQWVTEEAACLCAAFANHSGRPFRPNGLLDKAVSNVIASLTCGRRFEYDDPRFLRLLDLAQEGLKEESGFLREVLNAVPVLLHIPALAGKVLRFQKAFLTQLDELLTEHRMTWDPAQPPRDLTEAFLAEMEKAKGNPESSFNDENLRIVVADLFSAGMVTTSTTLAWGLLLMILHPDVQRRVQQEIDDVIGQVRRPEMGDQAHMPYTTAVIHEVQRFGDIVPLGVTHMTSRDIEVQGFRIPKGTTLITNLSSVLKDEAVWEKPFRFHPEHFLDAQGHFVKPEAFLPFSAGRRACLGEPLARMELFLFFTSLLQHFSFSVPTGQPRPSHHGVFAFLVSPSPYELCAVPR

SMILES: C[C@@H](NCCCc1cccc(C(F)(F)F)c1)c1cccc2ccccc12.Cl [Sensipar®, N-[1-(R)-(−)-(1-naphthyl)ethyl]-3-[3-(trifluoromethyl)phenyl]-1-aminopropane hydrochloride]
- effect on calcium levels [1]: reduce high levels of calcium
- metabolizing enzyme (cytochrome P450 2D6): metabolized by cytochrome P450 2D6

SMILES: C[C@@H](NCCCc1cccc(C(F)(F)F)c1)c1cccc2ccccc12.Cl [Form II]
- stability of the crystalline form ([2]; room temperature): unstable at room temperature

SMILES: C[C@@H](NCCCc1cccc(C(F)(F)F)c1)c1cccc2ccccc12.Cl [Form III, N-[1-(R)-(−)-(1-naphthyl)ethyl]-3-[3-(trifluoromethyl)phenyl]-1-aminopropane hydrochloride]
- thermodynamic stability of the crystalline form ([2]; solvent systems and crystallization methods, XRPD analysis): metastable form
